Test system: Human immunodeficiency virus 1
Assay: Antiviral activity against Human immunodeficiency virus 1 infected human MT4 cells assessed as inhibition of virus-induced cytopathic effect by MTT assay
Format: functional, organism-based
Details: Human immunodeficiency virus 1, MT4

In order of rising EC50:
1. N#CCN1C(=O)N(Cc2cccc(Br)c2)S(=O)(=O)c2cscc21  50 nM
2. CCN1C(=O)N(Cc2cccc(Cl)c2)S(=O)(=O)c2cscc21  90 nM
3. C#CCN1C(=O)N(Cc2cccc(Cl)c2)S(=O)(=O)c2cscc21  90 nM
4. O=C1N(c2ccccc2Cl)c2cscc2S(=O)(=O)N1Cc1ccccc1  100 nM
5. N#CCN1C(=O)N(Cc2cccc(Cl)c2)S(=O)(=O)c2cscc21  100 nM
6. O=C1N(Cc2ccccc2)c2cscc2S(=O)(=O)N1Cc1ccccn1  200 nM
7. N#CCN1C(=O)N(Cc2cccc(F)c2)S(=O)(=O)c2cscc21  300 nM
8. N#CCN1C(=O)N(Cc2ccccn2)S(=O)(=O)c2cscc21  400 nM
9. N#CCN1C(=O)N(Cc2cccnc2)S(=O)(=O)c2cscc21  800 nM
10. N#CCN1C(=O)N(Cc2ccccc2)S(=O)(=O)c2cscc21  870 nM
11. C#CCN1C(=O)N(Cc2ccccc2)S(=O)(=O)c2cscc21  960 nM
12. CCN1C(=O)N(Cc2ccccn2)S(=O)(=O)c2cscc21  1100 nM
13. O=C1N(c2cccc(Cl)c2)c2cscc2S(=O)(=O)N1Cc1ccccc1  1400 nM
14. CN1C(=O)N(Cc2cccc(Cl)c2)S(=O)(=O)c2cscc21  2100 nM
15. O=C1N(Cc2ccccc2)c2cscc2S(=O)(=O)N1Cc1ccccc1  2200 nM
16. CCN1C(=O)N(Cc2ccccc2)S(=O)(=O)c2cscc21  2400 nM
17. CN1C(=O)N(Cc2ccccc2)S(=O)(=O)c2cscc21  2700 nM
18. CCN1C(=O)N(CCc2ccccc2)S(=O)(=O)c2cscc21  3600 nM
19. N#CCCN1C(=O)N(Cc2ccccc2)S(=O)(=O)c2cscc21  4900 nM
20. CCCN1C(=O)N(Cc2ccccc2)S(=O)(=O)c2cscc21  6100 nM
21. C=CCN1C(=O)N(Cc2ccccc2)S(=O)(=O)c2cscc21  6300 nM
22. CCOC(=O)CN1C(=O)N(Cc2ccccc2)S(=O)(=O)c2cscc21  7300 nM
23. O=C1N(c2ccc(Cl)cc2)c2cscc2S(=O)(=O)N1Cc1ccccc1  7400 nM
24. CCN1C(=O)N(Cc2ccccc2Cl)S(=O)(=O)c2cscc21  7600 nM
25. N#CCN1C(=O)N(Cc2cc(F)cc(F)c2)S(=O)(=O)c2cscc21  8600 nM
26. N#CCN1C(=O)N(CCc2ccccc2)S(=O)(=O)c2cscc21  10900 nM
27. O=C1N(Cc2ccccc2)c2cscc2S(=O)(=O)N1CCc1ccccc1  41400 nM
28. CCN1C(=O)N(c2cccc(Cl)c2)S(=O)(=O)c2cscc21  61300 nM
